Source: patent US20090036525A1, “Non-Natural Amino Acid Derivatives” (POXIMAGEN LTD., priority 2006, published 2009)
Where a SMILES comes first, the peptide text is derived from it. [ ]: non-standard residue; d: D form. Dopa = N[C@@H](Cc1ccc(O)c(O)c1)C(=O)O; Cha = N[C@@H](CC1CCCCC1)C(=O)O

Tested on: 6-OHDA-lesioned rats
Assay: Induction of rotational activity in 6-OHDA-lesioned rats
Format: in vivo, rat
Settings: 63.4 μmole/kg, after benserazide 10 mg/kg, rotations over 4 hours

Compound: COC(=O)[C@H](Cc1ccc(O)c(O)c1)NC(=O)[C@@H](N)CC1CCCCC1.Cl [Example 1, (S)-2-Cyclohexyl-1-[(S)-2-(3,4-dihydroxyphenyl)-1-methoxycarbonylethyl-carbamoyl]-ethylammonium chloride] (H-[Cha]-[Dopa]-OMe)
- AUC activity (as % of AUC activity L-DOPA) (p.o.): 40 % of L-DOPA
- Peak activity (as % of maximal activity L-DOPA) (p.o.): 53 % of L-DOPA
- duration of activity (as % of duration of activity L-DOPA) (p.o.): 45 % of L-DOPA

Compound: COC(=O)[C@H](Cc1ccc(OC(C)=O)c(OC(C)=O)c1)NC(=O)[C@@H](N)CC1CCCCC1.Cl [Example 2, (S)-2-Cyclohexyl-1-[(S)-2-(3,4-diacetoxyphenyl)-1-methoxycarbonyl-ethylcarbamoyl]-ethylammonium chloride]
- AUC activity (as % of AUC activity L-DOPA) (i.p.): 32 % of L-DOPA
- Peak activity (as % of maximal activity L-DOPA) (i.p.): 31 % of L-DOPA
- duration of activity (as % of duration of activity L-DOPA) (i.p.): 27 % of L-DOPA

Compound: COC(=O)[C@H](Cc1ccc(O)c(O)c1)NC(=O)[C@@H](N)[C@@H](C)c1ccccc1.Cl [Example 12, (1S,2S)-1-[(S)-2-(3,4-Dihydroxyphenyl)-1-methoxycarbonylethylcarbamoyl]-2-phenylpropylammonium chloride]
- AUC activity (as % of AUC activity L-DOPA) (p.o.): 50 % of L-DOPA
- Peak activity (as % of maximal activity L-DOPA) (p.o.): 62 % of L-DOPA
- duration of activity (as % of duration of activity L-DOPA) (p.o.): 46 % of L-DOPA

Compound: COC(=O)[C@H](Cc1ccc(O)c(O)c1)NC(=O)[C@@H](N)[C@H](C)c1ccccc1.Cl [Example 13, (1S,2R)-1-[(S)-2-(3,4-Dihydroxyphenyl)-1-methoxycarbonyl-ethylcarbamoyl]-2-phenylpropylammonium; chloride]
- AUC activity (as % of AUC activity L-DOPA) (p.o.): 106 % of L-DOPA
- Peak activity (as % of maximal activity L-DOPA) (p.o.): 141 % of L-DOPA
- duration of activity (as % of duration of activity L-DOPA) (p.o.): 76 % of L-DOPA
